Measured values as given in ChEMBL document CHEMBL1201861, “Genomics of Drug Sensitity in Cancer screening data, Wellcome Trust Sanger Institute”.

Assays:
Assay in all cases: cells
Type in all cases: functional, cell-based, Homo sapiens
MMAC-SF = conditions: Homo sapiens, MMAC-SF;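 note: growth inhibition of human MMAC-SF cells, read out with a cell viability assay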
Description: SANGER: Inhibition of human MMAC-SF cell growth in a cell viability assay.

A101D = conditions: Homo sapiens, A101D;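 note: growth inhibition of the cell line, measured with a viability assay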
Description: SANGER: Inhibition of human A101D cell growth in a cell viability assay.

IST-SL1 = conditions: Homo sapiens, IST-SL1;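 note: growth inhibition of human IST-SL1 cells, read out with a cell viability assay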
Description: SANGER: Inhibition of human IST-SL1 cell growth in a cell viability assay.

NCI-H1581 = conditions: Homo sapiens, NCI-H1581;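 note: cell growth inhibition read out by a viability assay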
Description: SANGER: Inhibition of human NCI-H1581 cell growth in a cell viability assay.

KLE = conditions: Homo sapiens, KLE;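 note: growth inhibition of human KLE cells, read out with a cell viability assay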
Description: SANGER: Inhibition of human KLE cell growth in a cell viability assay.

D-392MG = conditions: Homo sapiens, D-392MG
GB-1 = conditions: Homo sapiens, GB-1;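 note: growth of GB-1 cells judged by a viability assay, IC50 marks the concentration inhibiting growth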
Description: SANGER: Inhibition of human GB-1 cell growth in a cell viability assay.

NKM-1 = conditions: Homo sapiens, NKM-1;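 note: growth inhibition of NKM-1 cells, read out with a cell viability assay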
Description: SANGER: Inhibition of human NKM-1 cell growth in a cell viability assay.

LB1047-RCC = conditions: Homo sapiens, LB1047-RCC;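 note: inhibition of cell growth, determined with a cell viability assay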
Description: SANGER: Inhibition of human LB1047-RCC cell growth in a cell viability assay.

EW-18 = conditions: Homo sapiens, EW-18;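 note: growth inhibition of EW-18 cells, read out by a cell viability assay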
Description: SANGER: Inhibition of human EW-18 cell growth in a cell viability assay.

GR-ST = conditions: Homo sapiens, GR-ST
Description: SANGER: Inhibition of human GR-ST cell growth in a cell viability assay.

HH = conditions: Homo sapiens, HH
Description: SANGER: Inhibition of human HH cell growth in a cell viability assay.

MHH-NB-11 = conditions: Homo sapiens, MHH-NB-11;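 note: growth inhibition of human MHH-NB-11 cells, read out by a cell viability assay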
Description: SANGER: Inhibition of human MHH-NB-11 cell growth in a cell viability assay.

KP-N-YS = conditions: Homo sapiens, KP-N-YS;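 note: cell viability assay measuring inhibition of cell line growth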
Description: SANGER: Inhibition of human KP-N-YS cell growth in a cell viability assay.

EOL1 = conditions: Homo sapiens, EOL1;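 note: growth inhibition of EoL-1 cells, read out by a cell viability assay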
Description: SANGER: Inhibition of human EoL-1-cell cell growth in a cell viability assay.

ALL-PO = conditions: Homo sapiens, ALL-PO;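 note: growth inhibition of ALL-PO cells, read out by a cell viability assay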
Description: SANGER: Inhibition of human ALL-PO cell growth in a cell viability assay.

K562 = conditions: Homo sapiens, K562
Description: SANGER: Inhibition of human K-562 cell growth in a cell viability assay.

SK-PN-DW = conditions: Homo sapiens, SK-PN-DW;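 note: growth inhibition measured with a viability assay on these cells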
Description: SANGER: Inhibition of human SK-PN-DW cell growth in a cell viability assay.

COR-L88 = conditions: Homo sapiens, COR-L88;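 note: growth inhibition of COR-L88 cells, read out with a cell viability assay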
Description: SANGER: Inhibition of human COR-L88 cell growth in a cell viability assay.

KALS-1 = conditions: Homo sapiens, KALS-1;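 note: growth inhibition of KALS-1 cells, determined with a cell viability assay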
Description: SANGER: Inhibition of human KALS-1 cell growth in a cell viability assay.

KGN = conditions: Homo sapiens, KGN;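 note: growth inhibition of KGN cells, read out with a cell viability assay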
Description: SANGER: Inhibition of human KGN cell growth in a cell viability assay.

GI-ME-N = conditions: Homo sapiens, GI-ME-N;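 note: growth inhibition of human GI-ME-N cells, read out with a cell viability assay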
Description: SANGER: Inhibition of human GI-ME-N cell growth in a cell viability assay.

CGTH-W-1 = conditions: Homo sapiens, CGTH-W-1;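 note: growth inhibition of human CGTH-W-1 cells measured by cell viability assay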
Description: SANGER: Inhibition of human CGTH-W-1 cell growth in a cell viability assay.

ML-2 = conditions: Homo sapiens, ML-2;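 note: growth inhibition of ML-2 cells, measured with a cell viability readout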
Description: SANGER: Inhibition of human ML-2 cell growth in a cell viability assay.

HOP-62 = conditions: Homo sapiens, HOP-62;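 note: cell growth inhibition determined with a viability assay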
Description: SANGER: Inhibition of human HOP-62 cell growth in a cell viability assay.

VA-ES-BJ = conditions: Homo sapiens, VA-ES-BJ;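 note: growth inhibition of the VA-ES-BJ cell line, read out by a cell viability assay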
Description: SANGER: Inhibition of human VA-ES-BJ cell growth in a cell viability assay.

LB2241-RCC = conditions: Homo sapiens, LB2241-RCC;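 note: cell viability assay measuring how strongly the cultured human renal carcinoma line is prevented from growing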
Description: SANGER: Inhibition of human LB2241-RCC cell growth in a cell viability assay.

KM12 = conditions: Homo sapiens, KM12;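 note: KM12 cell growth inhibition, read out with a cell viability assay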
Description: SANGER: Inhibition of human KM12 cell growth in a cell viability assay.

CCRF-CEM = conditions: Homo sapiens, CCRF-CEM;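 note: inhibition of CCRF-CEM cell growth, measured by a cell viability assay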
Description: SANGER: Inhibition of human CCRF-CEM cell growth in a cell viability assay.

HC-1 = conditions: Homo sapiens, HC-1;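 note: growth inhibition of HC-1 cells measured by a cell viability assay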
Description: SANGER: Inhibition of human HC-1 cell growth in a cell viability assay.

TGBC24TKB = conditions: Homo sapiens, TGBC24TKB;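 note: growth inhibition of human TGBC24TKB cells, read out with a cell viability assay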
Description: SANGER: Inhibition of human TGBC24TKB cell growth in a cell viability assay.

Becker = conditions: Homo sapiens, Becker;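 note: growth inhibition of Becker cells, read out with a cell viability assay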
Description: SANGER: Inhibition of human Becker cell growth in a cell viability assay.

KU812 cell line = conditions: Homo sapiens, KU812;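 note: growth inhibition of KU812 cells, read out with a cell viability assay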
Description: SANGER: Inhibition of human KU812 cell growth in a cell viability assay.

NB17 = conditions: Homo sapiens, NB17;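 note: growth inhibition of NB17 cells, read out with a cell viability assay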
Description: SANGER: Inhibition of human NB17 cell growth in a cell viability assay.

NCI-H1299 = conditions: Homo sapiens, NCI-H1299;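 note: growth inhibition of human NCI-H1299 cells, read out by a cell viability assay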
Description: SANGER: Inhibition of human NCI-H1299 cell growth in a cell viability assay.

SK-UT-1 = conditions: Homo sapiens, SK-UT-1;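 note: growth inhibition of SK-UT-1 cells, measured by a cell viability assay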
Description: SANGER: Inhibition of human SK-UT-1 cell growth in a cell viability assay.

NCI-H526 = conditions: Homo sapiens, NCI-H526;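 note: growth inhibition of the human NCI-H526 cell line, measured by a cell viability assay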
Description: SANGER: Inhibition of human NCI-H526 cell growth in a cell viability assay.

SW 962 = conditions: Homo sapiens, SW 962;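 note: growth inhibition of human SW962 cells, read out by a cell viability assay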
Description: SANGER: Inhibition of human SW962 cell growth in a cell viability assay.

ONS-76 = conditions: Homo sapiens, ONS-76;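 note: growth inhibition of human ONS-76 cells, read out with a cell viability assay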
Description: SANGER: Inhibition of human ONS-76 cell growth in a cell viability assay.

KY821 = conditions: Homo sapiens, KY821;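 note: growth inhibition of human KY821 cells, read out by a cell viability assay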
Description: SANGER: Inhibition of human KY821 cell growth in a cell viability assay.

LB831-BLC = conditions: Homo sapiens, LB831-BLC;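 note: growth inhibition of LB831-BLC cells, read out with a cell viability assay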
Description: SANGER: Inhibition of human LB831-BLC cell growth in a cell viability assay.

ES8 = conditions: Homo sapiens, ES8;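 note: growth inhibition of human ES8 cells, read out with a cell viability assay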
Description: SANGER: Inhibition of human ES8 cell growth in a cell viability assay.

NMC-G1 = conditions: Homo sapiens, NMC-G1;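 note: growth inhibition of the NMC-G1 cell line, measured with a cell viability read-out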
Description: SANGER: Inhibition of human NMC-G1 cell growth in a cell viability assay.

MPP-89 = conditions: Homo sapiens, MPP-89;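 note: growth inhibition of human MPP-89 cells, read out with a cell viability assay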
Description: SANGER: Inhibition of human MPP-89 cell growth in a cell viability assay.

A3-KAW = conditions: Homo sapiens, A3-KAW;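 note: growth inhibition of human A3-KAW cells, read out with a cell viability assay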
Description: SANGER: Inhibition of human A3-KAW cell growth in a cell viability assay.

BE-13 = conditions: Homo sapiens, BE-13;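 note: growth inhibition of human BE-13 cells, measured with a cell viability assay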
Description: SANGER: Inhibition of human BE-13 cell growth in a cell viability assay.

NCI-H1838 = conditions: Homo sapiens, NCI-H1838;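 note: growth inhibition of NCI-H1838 cells, determined with a cell viability readout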
Description: SANGER: Inhibition of human NCI-H1838 cell growth in a cell viability assay.

TE-5 = conditions: Homo sapiens, TE-5;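 note: inhibition of cell growth, read out by a cell viability assay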
Description: SANGER: Inhibition of human TE-5 cell growth in a cell viability assay.

LB373-MEL-D = conditions: Homo sapiens, LB373-MEL-D;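 note: growth inhibition of the cell line, read out in a cell viability assay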
Description: SANGER: Inhibition of human LB373-MEL-D cell growth in a cell viability assay.

Measured: IC50

CO[C@H]1C[C@@H]2CC[C@@H](C)[C@@](O)(O2)C(=O)C(=O)N2CCCC[C@H]2C(=O)O[C@H]([C@H](C)C[C@@H]2CC[C@@H](OC(=O)C(C)(CO)CO)[C@H](OC)C2)CC(=O)[C@H](C)/C=C(\C)[C@@H](O)[C@@H](OC)C(=O)[C@H](C)C[C@H](C)/C=C/C=C/C=C/1C [TEMSIROLIMUS]
0.0104 µM: A3-KAW
0.0393 µM: LB2241-RCC
0.141 µM: TGBC24TKB
> 0.2 µM: MMAC-SF | IST-SL1 | NCI-H1581 | KLE | D-392MG | GB-1 | EW-18 | MHH-NB-11 | KP-N-YS | ALL-PO | K562 | SK-PN-DW | COR-L88 | KGN | GI-ME-N | ML-2 | HOP-62 | KM12 | CCRF-CEM | KU812 cell line | NB17 | KY821 | LB831-BLC | NMC-G1 | MPP-89 | NCI-H1838 | TE-5 | LB373-MEL-D
0.0156 µM: SW 962
0.0799 µM: Becker
0.198 µM: NKM-1
0.0641 µM: SK-UT-1
0.0161 µM: EOL1
0.00575 µM: CGTH-W-1
0.0059 µM: VA-ES-BJ
0.000664 µM: HH
0.0631 µM: LB1047-RCC
0.101 µM: HC-1
0.0616 µM: NCI-H526
0.00491 µM: BE-13
0.149 µM: KALS-1
0.0487 µM: A101D
0.186 µM: NCI-H1299
0.033 µM: ONS-76
0.0333 µM: GR-ST
0.00527 µM: ES8

CS(=O)(=O)c1ccc(C(=O)Nc2ccc(Cl)c(-c3ccccn3)c2)c(Cl)c1 [VISMODEGIB]
> 10 µM: MMAC-SF | A101D | IST-SL1 | NCI-H1581 | KLE | D-392MG | GB-1 | NKM-1 | LB1047-RCC | EW-18 | GR-ST | HH | MHH-NB-11 | KP-N-YS | ALL-PO | K562 | SK-PN-DW | KALS-1 | KGN | GI-ME-N | CGTH-W-1 | ML-2 | HOP-62 | VA-ES-BJ | LB2241-RCC | KM12 | CCRF-CEM | HC-1 | TGBC24TKB | Becker | NB17 | NCI-H1299 | SK-UT-1 | NCI-H526 | SW 962 | ONS-76 | LB831-BLC | ES8 | NMC-G1 | MPP-89 | A3-KAW | BE-13 | NCI-H1838 | TE-5 | LB373-MEL-D

COc1cc2ncn(-c3cc(OCc4ccccc4S(C)(=O)=O)c(C#N)s3)c2cc1OC [GSK-319347A]
> 5 µM: MMAC-SF | A101D | IST-SL1 | NCI-H1581 | D-392MG | GB-1 | NKM-1 | LB1047-RCC | EW-18 | GR-ST | HH | MHH-NB-11 | KP-N-YS | EOL1 | ALL-PO | K562 | SK-PN-DW | COR-L88 | KALS-1 | KGN | GI-ME-N | CGTH-W-1 | ML-2 | HOP-62 | VA-ES-BJ | LB2241-RCC | KM12 | CCRF-CEM | HC-1 | Becker | KU812 cell line | NB17 | NCI-H1299 | SK-UT-1 | NCI-H526 | SW 962 | ONS-76 | KY821 | LB831-BLC | ES8 | NMC-G1 | MPP-89 | A3-KAW | BE-13 | NCI-H1838 | TE-5 | LB373-MEL-D
